Laboratory results as given in patent US4684664A, “Derivatives of β-(4-isocyano-1,2,3,4-diepoxycyclopentyl) acrylic acid” (Kureha Kagaku Kogyo Kabushiki Kaisha, priority 1984, dated 1987).
In brackets after ≈: the same amount, converted by molar mass.

Columns and labels:
Format in all cases: cell-based
[1] = tested on: Staphylococcus aureus FDA 209PJc-1; assay: Antibacterial activity, agar-dilution MIC, organism No. 1; settings: for MIC: Staphylococcus aureus, FDA209PJC1, read-out: Minimum Inhibitory Concentration
Summary of the method: (§1)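 MICs were determined by agar dilution on bouillon-agar medium. The value is the minimum concentration of specimen inhibiting growth, expressed as μg/ml of culture medium.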

[2] = tested on: Staphylococcus aureus Terajima; assay: Antibacterial activity, agar-dilution MIC, organism No. 2; settings: for MIC: Staphylococcus aureus, read-out: Minimum Inhibitory Concentration
Summary of the method: as §1

[3] = tested on: Staphylococcus aureus MS 353; assay: Antibacterial activity, agar-dilution MIC, organism No. 3; settings: for MIC: Staphylococcus aureus, MS353, read-out: Minimum Inhibitory Concentration
Summary of the method: as §1

[4] = tested on: Streptococcus pyogenes Cook; assay: Antibacterial activity, agar-dilution MIC, organism No. 4; settings: for MIC: Streptococcus pyogenes, read-out: Minimum Inhibitory Concentration
Summary of the method: as §1

[5] = tested on: Escherichia coli NIHJ-JC-2; assay: Antibacterial activity, agar-dilution MIC, organism No. 5; settings: for MIC: Escherichia coli, NIHJJC2, read-out: Minimum Inhibitory Concentration
Summary of the method: as §1

[6] = tested on: Escherichia coli K12 C600 IAM 1264; assay: Antibacterial activity, agar-dilution MIC, organism No. 6; settings: for MIC: Escherichia coli, IAM1264, read-out: Minimum Inhibitory Concentration
Summary of the method: as §1

[7] = tested on: Klebsiella pneumoniae PCI-602; assay: Antibacterial activity, agar-dilution MIC, organism No. 7; settings: for MIC: Klebsiella pneumoniae, PCI602, read-out: Minimum Inhibitory Concentration
Summary of the method: as §1

[8] = tested on: Salmonella typhimurium IID 971; assay: Antibacterial activity, agar-dilution MIC, organism No. 8; settings: for MIC: Salmonella enterica, read-out: Minimum Inhibitory Concentration
Summary of the method: as §1

[9] = tested on: Salmonella typhi 901; assay: Antibacterial activity, agar-dilution MIC, organism No. 9; settings: for MIC: Salmonella enterica, TYPHI, read-out: Minimum Inhibitory Concentration
Summary of the method: as §1

[10] = tested on: Salmonella paratyphi-A 1015; assay: Antibacterial activity, agar-dilution MIC, organism No. 10; settings: for MIC: Salmonella enterica, PARATYPHI, read-out: Minimum Inhibitory Concentration
Summary of the method: as §1

[11] = tested on: Salmonella shottmuelleri 8006; assay: Antibacterial activity, agar-dilution MIC, organism No. 11; settings: for MIC: Salmonella, 8006, read-out: Minimum Inhibitory Concentration
Summary of the method: as §1

[12] = tested on: Salmonella enteritidis G 14; assay: Antibacterial activity, agar-dilution MIC, organism No. 12; settings: for MIC: Salmonella enterica, ENTERITIDIS, read-out: Minimum Inhibitory Concentration
Summary of the method: as §1

[13] = tested on: Serratia marcescens IAM 1184; assay: Antibacterial activity, agar-dilution MIC, organism No. 13; settings: for MIC: Serratia marcescens, IAM1184, read-out: Minimum Inhibitory Concentration
Excerpt: Agar-dilution method was used for determination of the antibacterial activity and antifungal activity while using bouillon-agar culture medium, and the minimum inhibitory concentration of the specimen was expressed by μg/ml of the culture medium.

[14] = tested on: Bacillus subtilis ATCC 6633; assay: Antibacterial activity, agar-dilution MIC, organism No. 14; settings: for MIC: Bacillus subtilis, ATCC6633, read-out: Minimum Inhibitory Concentration
Summary of the method: as §1

[15] = tested on: Pseudomonas aeruginosa IFO 3445; assay: Antibacterial activity, agar-dilution MIC, organism No. 15; settings: for MIC: Pseudomonas aeruginosa, IFO3445, read-out: Minimum Inhibitory Concentration
Summary of the method: as §1

[16] = tested on: Pseudomonas aeruginosa NCTC 10490; assay: Antibacterial activity, agar-dilution MIC, organism No. 16; settings: for MIC: Pseudomonas aeruginosa, NCTC10490, read-out: Minimum Inhibitory Concentration
Summary of the method: as §1

[17] = tested on: Pseudomonas aeruginosa PAO 1; assay: Antibacterial activity, agar-dilution MIC, organism No. 17; settings: for MIC: Pseudomonas aeruginosa, PAO1, read-out: Minimum Inhibitory Concentration
Summary of the method: as §1

[18] = tested on: Proteus morganii IFO 3848; assay: Antibacterial activity, agar-dilution MIC, organism No. 18; settings: for MIC: Morganella morganii, IFO3848, read-out: Minimum Inhibitory Concentration
Summary of the method: as §1

[19] = tested on: Proteus mirabilis IFO 3849; assay: Antibacterial activity, agar-dilution MIC, organism No. 19; settings: for MIC: Proteus mirabilis, IFO3849, read-out: Minimum Inhibitory Concentration
Summary of the method: as §1

[20] = tested on: Proteus vulgaris OX-19; assay: Antibacterial activity, agar-dilution MIC, organism No. 20; settings: for MIC: Proteus vulgaris, OX19, read-out: Minimum Inhibitory Concentration
Summary of the method: as §1

[21] = tested on: Proteus vulgaris HX-19; assay: Antibacterial activity, agar-dilution MIC, organism No. 21; settings: for MIC: Proteus vulgaris, HX19, read-out: Minimum Inhibitory Concentration
Summary of the method: as §1

[22] = tested on: Proteus rettgeri IFO 3850; assay: Antibacterial activity, agar-dilution MIC, organism No. 22; settings: for MIC: Providencia rettgeri, IFO3850, read-out: Minimum Inhibitory Concentration
Summary of the method: as §1

[23] = tested on: Enterobacter aerogenes ATCC 13048; assay: Antibacterial activity, agar-dilution MIC, organism No. 23; settings: for MIC: Klebsiella aerogenes, ATCC13048, read-out: Minimum Inhibitory Concentration
Summary of the method: as §1

[24] = tested on: Enterobacter cloacae 963; assay: Antibacterial activity, agar-dilution MIC, organism No. 24; settings: for MIC: Enterobacter cloacae, 963, read-out: Minimum Inhibitory Concentration
Summary of the method: as §1

[25] = tested on: Micrococcus luteus ATCC 9341; assay: Antibacterial activity, agar-dilution MIC, organism No. 25; settings: for MIC: Micrococcus luteus, ATCC9341, read-out: Minimum Inhibitory Concentration
Summary of the method: as §1

[26] = tested on: Streptococcus pyogenes IFO 3340; assay: Antibacterial activity, agar-dilution MIC, organism No. 26; settings: for MIC: Streptococcus pyogenes, IFO3340, read-out: Minimum Inhibitory Concentration
Summary of the method: as §1

[27] = tested on: Streptococcus faecium IFO 3826; assay: Antibacterial activity, agar-dilution MIC, organism No. 27; settings: for MIC: Enterococcus faecium, IFO3826, read-out: Minimum Inhibitory Concentration
Summary of the method: as §1

[28] = tested on: Candida albicans IAM 4905; assay: Antifungal activity, agar-dilution MIC, organism No. 29; settings: for MIC: Candida albicans, IAM4905, read-out: Minimum Inhibitory Concentration
Summary of the method: as §1

[29] = tested on: Aspergillus niger IFO 6342; assay: Antifungal activity, agar-dilution MIC, organism No. 30; settings: for MIC: Aspergillus niger, IFO6342, read-out: Minimum Inhibitory Concentration
Summary of the method: as §1

Compound: [C-]#[N+]C12CC3(/C=C/C(=O)NCCO)OC3C1O2 (stereo not drawn) [compound 68]
- MIC [1]: 3.13 µg/mL (≈ 13.2 µM)
- MIC [2]: 25 µg/mL (≈ 106 µM)
- MIC [3]: 6.25 µg/mL (≈ 26.5 µM)
- MIC [4]: 200 µg/mL (≈ 847 µM)
- MIC [5]: 25 µg/mL (≈ 106 µM)
- MIC [6]: 25 µg/mL (≈ 106 µM)
- MIC [7]: 200 µg/mL (≈ 847 µM)
- MIC [8]: 25 µg/mL (≈ 106 µM)
- MIC [9]: 6.25 µg/mL (≈ 26.5 µM)
- MIC [10]: 12.5 µg/mL (≈ 52.9 µM)
- MIC [11]: 25 µg/mL (≈ 106 µM)
- MIC [12]: 6.25 µg/mL (≈ 26.5 µM)
- MIC [13]: 100 µg/mL (≈ 423 µM)
- MIC [14]: 100 µg/mL (≈ 423 µM)
- MIC [15]: > 200 µg/mL
- MIC [16]: > 200 µg/mL
- MIC [17]: > 200 µg/mL
- MIC [18]: 6.25 µg/mL (≈ 26.5 µM)
- MIC [19]: 200 µg/mL (≈ 847 µM)
- MIC [20]: 12.5 µg/mL (≈ 52.9 µM)
- MIC [21]: 6.25 µg/mL (≈ 26.5 µM)
- MIC [22]: 200 µg/mL (≈ 847 µM)
- MIC [23]: > 200 µg/mL
- MIC [24]: > 200 µg/mL
- MIC [25]: 6.25 µg/mL (≈ 26.5 µM)
- MIC [26]: 12.5 µg/mL (≈ 52.9 µM)
- MIC [27]: 200 µg/mL (≈ 847 µM)
- MIC [28]: 100 µg/mL (≈ 423 µM)
- MIC [29]: 100 µg/mL (≈ 423 µM)

Compound: [C-]#[N+]C12CC3(/C=C/C(=O)NC4OC(COC(C)=O)C(OC(C)=O)C(OC(C)=O)C4OC(C)=O)OC3C1O2 (stereo not drawn) [compound 69]
- Minimum Inhibitory Concentration ([1]; Organism No. 1, bouillon-agar): 100 µg/mL
- Minimum Inhibitory Concentration ([2]; Organism No. 2, bouillon-agar): > 200 µg/mL
- Minimum Inhibitory Concentration ([3]; Organism No. 3, bouillon-agar): 100 µg/mL
- Minimum Inhibitory Concentration ([4]; Organism No. 4, bouillon-agar): > 200 µg/mL
- Minimum Inhibitory Concentration ([5]; Organism No. 5, bouillon-agar): > 200 µg/mL
- Minimum Inhibitory Concentration ([6]; Organism No. 6, bouillon-agar): > 200 µg/mL
- Minimum Inhibitory Concentration ([7]; Organism No. 7, bouillon-agar): > 200 µg/mL
- Minimum Inhibitory Concentration ([8]; Organism No. 8, bouillon-agar): > 200 µg/mL
- Minimum Inhibitory Concentration ([9]; Organism No. 9, bouillon-agar): > 200 µg/mL
- Minimum Inhibitory Concentration ([10]; Organism No. 10, bouillon-agar): 200 µg/mL
- Minimum Inhibitory Concentration ([11]; Organism No. 11, bouillon-agar): > 200 µg/mL
- Minimum Inhibitory Concentration ([12]; Organism No. 12, bouillon-agar): > 200 µg/mL
- Minimum Inhibitory Concentration ([13]; Organism No. 13, bouillon-agar): > 200 µg/mL
- Minimum Inhibitory Concentration ([14]; Organism No. 14, bouillon-agar): > 200 µg/mL
- Minimum Inhibitory Concentration ([15]; Organism No. 15, bouillon-agar): > 200 µg/mL
- Minimum Inhibitory Concentration ([16]; Organism No. 16, bouillon-agar): > 200 µg/mL
- Minimum Inhibitory Concentration ([17]; Organism No. 17, bouillon-agar): > 200 µg/mL
- Minimum Inhibitory Concentration ([18]; Organism No. 18, bouillon-agar): > 200 µg/mL
- Minimum Inhibitory Concentration ([19]; Organism No. 19, bouillon-agar): > 200 µg/mL
- Minimum Inhibitory Concentration ([20]; Organism No. 20, bouillon-agar): > 200 µg/mL
- Minimum Inhibitory Concentration ([21]; Organism No. 21, bouillon-agar): > 200 µg/mL
- Minimum Inhibitory Concentration ([22]; Organism No. 22, bouillon-agar): > 200 µg/mL
- Minimum Inhibitory Concentration ([23]; Organism No. 23, bouillon-agar): > 200 µg/mL
- Minimum Inhibitory Concentration ([24]; Organism No. 24, bouillon-agar): > 200 µg/mL
- Minimum Inhibitory Concentration ([25]; Organism No. 25, bouillon-agar): 100 µg/mL
- Minimum Inhibitory Concentration ([26]; Organism No. 26, bouillon-agar): 50 µg/mL
- Minimum Inhibitory Concentration ([27]; Organism No. 27, bouillon-agar): > 200 µg/mL
- Minimum Inhibitory Concentration ([28]; Organism No. 29, bouillon-agar): 100 µg/mL
- Minimum Inhibitory Concentration ([29]; Organism No. 30, bouillon-agar): 100 µg/mL

Compound: [C-]#[N+]C12CC3(/C=C/C(=O)Nc4nc[nH]n4)OC3C1O2 (stereo not drawn) [compound 78]
- MIC [1]: 50 µg/mL (≈ 193 µM)
- MIC [2]: 200 µg/mL (≈ 772 µM)
- MIC [3]: 50 µg/mL (≈ 193 µM)
- MIC [4]: 100 µg/mL (≈ 386 µM)
- MIC [5]: 100 µg/mL (≈ 386 µM)
- MIC [6]: 100 µg/mL (≈ 386 µM)
- MIC [7]: 200 µg/mL (≈ 772 µM)
- MIC [8]: 100 µg/mL (≈ 386 µM)
- MIC [9]: 25 µg/mL (≈ 96.4 µM)
- MIC [10]: 50 µg/mL (≈ 193 µM)
- MIC [11]: 50 µg/mL (≈ 193 µM)
- MIC [12]: 50 µg/mL (≈ 193 µM)
- MIC [13]: > 200 µg/mL
- MIC [14]: 100 µg/mL (≈ 386 µM)
- MIC [15]: > 200 µg/mL
- MIC [16]: > 200 µg/mL
- MIC [17]: > 200 µg/mL
- MIC [18]: 50 µg/mL (≈ 193 µM)
- MIC [19]: 200 µg/mL (≈ 772 µM)
- MIC [20]: 50 µg/mL (≈ 193 µM)
- MIC [21]: 50 µg/mL (≈ 193 µM)
- MIC [22]: 200 µg/mL (≈ 772 µM)
- MIC [23]: > 200 µg/mL
- MIC [24]: > 200 µg/mL
- MIC [25]: 100 µg/mL (≈ 386 µM)
- MIC [26]: 100 µg/mL (≈ 386 µM)
- MIC [27]: 200 µg/mL (≈ 772 µM)
- MIC [28]: > 200 µg/mL
- MIC [29]: 200 µg/mL (≈ 772 µM)
